Like-named read-outs stand apart in the source and are kept apart here.
Key:
[1] = 15% relative humidity and 23° C.
Description: A method of measuring electrostatic nature is a tribogeneration where relative charge on the powdered sample is measured with an electrometer equipped with a Faraday cup (NanoCoulumb Meter, Model 284, Monroe Electronics, USA). Prior to measurement, the charge is generated by strongly vibrating the sample (approximately 3 g) on a dry Petri dish (D=24 cm) for 2 minutes. The charged sample is then transferred to a Faraday cup of the electrometer with a plastic spoon and its charge is measured by an electrometer. After the charge measurement the sample is weighted and the relative charge calculated. All measurements are performed at controlled dry atmosphere conditions (15% relative humidity and 23° C.).

[2] = SEM image, N=200 crystals
Description: The shape of crystals is determined by an analysis of an image, taken by the scanning electron microscope (SEM), JEOL JXA840A at magnification 500-2000×. The length/width ratio of the crystal habit is determined by measuring length and width of a representative sample (N=200) of crystals on the image, using the image analyzing software Olympus DP-Soft, v-3.2. The length/width ratio is calculated independently for each crystal. Finally, the number average of the ratio is determined and optionally histogram calculated.

Structure (SMILES): CCCCC1=NC2(CCCC2)C(=O)N1Cc1ccc(-c2ccccc2-c2nnn[nH]2)cc1 [Example 3, 2-n-butyl-4-spirocyclopentane-1-[((2′-tetrazol-5-yl)biphenyl-4-yl)methyl]-2-imidazolin-5-one]
- chargeab. (chargeability by tribogeneration) [1]: −45.8 ± 4.9 10^−9 As/g
- chargeab. (chargeability by tribogeneration) ([1]; listed as 3913D): 45.8±4.9 10^−9 As/g
- a (length of crystals) [2]: 20.7 ± 17.4 μm
- a:b (length/width ratio, number average) [2]: 23.3 ± 23
- b (width of crystals) [2]: 1.0 ± 0.5 μm

Structure (SMILES): CCCCC1=NC2(CCCC2)C(=O)N1Cc1ccc(-c2ccccc2-c2nnn[nH]2)cc1 [Example 2, 2-n-butyl-4-spirocyclopentane-1-[((2′-tetrazol-5-yl)biphenyl-4-yl)methyl]-2-imidazolin-5-one]
- chargeab. (chargeability by tribogeneration) [1]: −32 ± 4.6 10^−9 As/g
- a (length of crystals) [2]: 78 ± 68 μm
- a:b (length/width ratio, number average) [2]: 13.4 ± 1.9
- b (width of crystals) [2]: 6.7 ± 2.8 μm

Structure (SMILES): CCCCC1=NC2(CCCC2)C(=O)N1Cc1ccc(-c2ccccc2-c2nnn[nH]2)cc1 [Example 6, 2-n-butyl-4-spirocyclopentane-1-[((2′-tetrazol-5-yl)biphenyl-4-yl)methyl]-2-imidazolin-5-one]
- chargeab. (chargeability by tribogeneration) [1]: −27.9 ± 2.8 10^−9 As/g
- a (length of crystals) [2]: 32 ± 32 μm
- a:b (length/width ratio, number average) [2]: 22 ± 18
- b (width of crystals) [2]: 1.4 ± 0.6 μm

Structure (SMILES): CCCCC1=NC2(CCCC2)C(=O)N1Cc1ccc(-c2ccccc2-c2nnn[nH]2)cc1 [Example 5, 2-n-butyl-4-spirocyclopentane-1-[((2′-tetrazol-5-yl)biphenyl-4-yl)methyl]-2-imidazolin-5-one]
- chargeab. (chargeability by tribogeneration) [1]: −17.1 ± 2.9 10^−9 As/g
- a (length of crystals) [2]: 58 ± 50 μm
- a:b (length/width ratio, number average) [2]: 9.5 ± 8
- b (width of crystals) [2]: 6.4 ± 1.2 μm

Structure (SMILES): CCCCC1=NC2(CCCC2)C(=O)N1Cc1ccc(-c2ccccc2-c2nnn[nH]2)cc1 [Example 1, 2-n-butyl-4-spirocyclopentane-1-[((2′-tetrazol-5-yl)biphenyl-4-yl)methyl]-2-imidazolin-5-one]
- chargeab. (chargeability by tribogeneration) [1]: −33.7 ± 15 10^−9 As/g
- a (length of crystals) [2]: 14.9 ± 10.1 μm
- a:b (length/width ratio, number average) [2]: 13 ± 10
- b (width of crystals) [2]: 1.2 ± 1.4 μm

Structure (SMILES): CCCCC1=NC2(CCCC2)C(=O)N1Cc1ccc(-c2ccccc2-c2nnn[nH]2)cc1 [Example 7, 2-n-butyl-4-spirocyclopentane-1-[((2′-tetrazol-5-yl)biphenyl-4-yl)methyl]-2-imidazolin-5-one]
- chargeab. (chargeability by tribogeneration) [1]: −26.5 ± 6 10^−9 As/g
- chargeab. (chargeability by tribogeneration) ([1]; listed as 1649): −26.5±6 10^−9 As/g
- a (length of crystals) [2]: 21 ± 17 μm
- a:b (length/width ratio, number average) [2]: 13 ± 9
- b (width of crystals) [2]: 2.6 ± 1.0 μm

Structure (SMILES): CCCCC1=NC2(CCCC2)C(=O)N1Cc1ccc(-c2ccccc2-c2nnn[nH]2)cc1 [Example 4, 2-n-butyl-4-spirocyclopentane-1-[((2′-tetrazol-5-yl)biphenyl-4-yl)methyl]-2-imidazolin-5-one]
- chargeab. (chargeability by tribogeneration) [1]: −27.5 ± 5.6 10^−9 As/g
- a (length of crystals) [2]: 130 ± 96 μm
- a:b (length/width ratio, number average) [2]: 17 ± 12.9
- b (width of crystals) [2]: 7.9 ± 3.4 μm

Reference: patent publication US20090208573A1, “NOVEL POLYMORPH FORM OF IRBESARTAN” (LEK PHARMACEUTICALS D.D, priority 2004, published 2009)
